Experimental data: ChEMBL document CHEMBL1156855, “Identification of potent and selective VEGFR receptor tyrosine kinase inhibitors having new amide isostere headgroups” (Bioorg Med Chem Lett, 2010)
Calls of active or inactive are those of the source. No cut-off for these calls is given here.

Experiments:
[1] = molecular target: Vascular endothelial growth factor receptor 2 (Homo sapiens, UniProt P35968); assay: Inhibition of recombinant GST-fused VEGFR2 expressed in baculovirus infected Sf9 cells by DELFIA
[2] = molecular target: T1, Hepatocyte growth factor receptor (Homo sapiens, UniProt P08581); assay: Inhibition of recombinant GST-fused c-Met expressed in baculovirus infected high five cells by DELFIA
[3] = molecular target: Vascular endothelial growth factor receptor 1 (Homo sapiens) (UniProt P17948); assay: Inhibition of human VEGFR1 at 0.1 uM
[4] = molecular target: Vascular endothelial growth factor receptor 3 (Homo sapiens) (UniProt P35916); assay: Inhibition of human VEGFR3 at 0.1 uM
[5] = molecular target: T1, Hepatocyte growth factor receptor; assay: Inhibition of TPR-fused Met autophosphorylation expressed in HEK293T cells after 150 mins by ELISA; format: cell-based; conditions: hek-293t
[6] = molecular target: High affinity nerve growth factor receptor (Homo sapiens) (UniProt P04629); conditions: 0.1 uM
Description: Inhibition of human TrkA at 0.1 uM

[7] = molecular target: ALK tyrosine kinase receptor (Homo sapiens) (UniProt Q9UM73); conditions: 0.1 uM
Description: Inhibition of human ALK at 0.1 uM

[8] = molecular target: Cytoplasmic tyrosine-protein kinase BMX (Homo sapiens) (UniProt P51813); conditions: 0.1 uM
Description: Inhibition of human Bmx at 0.1 uM

[9] = molecular target: Serine/threonine-protein kinase Chk1 (Homo sapiens) (UniProt O14757); conditions: 0.1 uM
Description: Inhibition of human CHK1 at 0.1 uM

[10] = molecular target: Mast/stem cell growth factor receptor Kit (Homo sapiens) (UniProt P10721); conditions: 0.1 uM
Description: Inhibition of human c-Kit at 0.1 uM

[11] = molecular target: RAF proto-oncogene serine/threonine-protein kinase (Homo sapiens) (UniProt P04049); conditions: 0.1 uM
Description: Inhibition of human c-Raf at 0.1 uM

[12] = molecular target: Glycogen synthase kinase-3 beta (Homo sapiens) (UniProt P49841); conditions: 0.1 uM
Description: Inhibition of human GSK3-beta at 0.1 uM

[13] = molecular target: Serine/threonine-protein kinase haspin (Homo sapiens) (UniProt Q8TF76); conditions: 0.1 uM
Description: Inhibition of human haspin at 0.1 uM

[14] = molecular target: Inhibitor of nuclear factor kappa-B kinase subunit beta (Homo sapiens) (UniProt O14920); conditions: 0.1 uM
Description: Inhibition of human IKK-beta at 0.1 uM

[15] = molecular target: Tyrosine-protein kinase JAK2 (Homo sapiens) (UniProt O60674); conditions: 0.1 uM
Description: Inhibition of human JAK2 at 0.1 uM

[16] = molecular target: Tyrosine-protein kinase JAK3 (Homo sapiens) (UniProt P52333); conditions: 0.1 uM
Description: Inhibition of human JAK3 at 0.1 uM

[17] = molecular target: LIM domain kinase 1 (Homo sapiens) (UniProt P53667); conditions: 0.1 uM
Description: Inhibition of human LIMK1 at 0.1 uM

[18] = molecular target: Dual specificity mitogen-activated protein kinase kinase 1 (Homo sapiens) (UniProt Q02750); conditions: 0.1 uM
Description: Inhibition of human MEK1 at 0.1 uM

[19] = molecular target: 3-phosphoinositide-dependent protein kinase 1 (Homo sapiens) (UniProt O15530); conditions: 0.1 uM
Description: Inhibition of human PDK1 at 0.1 uM

[20] = molecular target: Phosphatidylinositol 4,5-bisphosphate 3-kinase catalytic subunit beta isoform (Homo sapiens) (UniProt P42338); conditions: 0.1 uM
Description: Inhibition of human PI3Kbeta at 0.1 uM

[21] = molecular target: Serine/threonine-protein kinase pim-1 (Homo sapiens) (UniProt P11309); conditions: 0.1 uM
Description: Inhibition of human Pim1 at 0.1 uM

[22] = molecular target: RAC-alpha serine/threonine-protein kinase (Homo sapiens) (UniProt P31749); conditions: 0.1 uM
Description: Inhibition of human PKBalpha at 0.1 uM

[23] = molecular target: Proto-oncogene tyrosine-protein kinase receptor Ret (Homo sapiens) (UniProt P07949); conditions: 0.1 uM
Description: Inhibition of human Ret at 0.1 uM

[24] = molecular target: Focal adhesion kinase 1 (Homo sapiens) (UniProt Q05397); conditions: 0.1 uM
Description: Inhibition of human FAK at 0.1 uM

[25] = molecular target: Ephrin type-B receptor 4 (Homo sapiens) (UniProt P54760); conditions: 0.1 uM
Description: Inhibition of human EphB4 at 0.1 uM

[26] = molecular target: Receptor-type tyrosine-protein kinase FLT3 (Homo sapiens) (UniProt P36888); conditions: 0.1 uM
Description: Inhibition of human Flt3 at 0.1 uM

[27] = molecular target: T1, Hepatocyte growth factor receptor; conditions: 0.1 uM
Description: Inhibition of human c-MET at 0.1 uM

[28] = molecular target: Macrophage-stimulating protein receptor (Homo sapiens) (UniProt Q04912); conditions: 0.1 uM
Description: Inhibition of human RON at 0.1 uM

[29] = molecular target: Angiopoietin-1 receptor (Homo sapiens) (UniProt Q02763); conditions: 0.1 uM
Description: Inhibition of human Tie2 at 0.1 uM

[30] = molecular target: Angiopoietin-1 receptor (Homo sapiens) (UniProt Q02763); assay: Inhibition of human Tie2
[31] = molecular target: T1, Hepatocyte growth factor receptor; assay: Inhibition of human c-MET
[32] = molecular target: Macrophage-stimulating protein receptor (Homo sapiens) (UniProt Q04912); assay: Inhibition of human RON
[33] = molecular target: Receptor-type tyrosine-protein kinase FLT3 (Homo sapiens) (UniProt P36888); assay: Inhibition of human Flt3
[34] = molecular target: Aurora kinase A (Homo sapiens) (UniProt O14965); assay: Inhibition of human Aurora A
[35] = molecular target: Vascular endothelial growth factor receptor 1 (Homo sapiens) (UniProt P17948); assay: Inhibition of human VEGFR1
[36] = molecular target: Vascular endothelial growth factor receptor 3 (Homo sapiens) (UniProt P35916); assay: Inhibition of human VEGFR3
HUVEC [37] = assay: Inhibition of VEGF-induced HUVEC proliferation; format: functional, cell-based; conditions: Homo sapiens
HUVEC [38] = assay: Antiangiogenic activity in HUVEC assessed as inhibition of tubule length; format: functional, cell-based; conditions: Homo sapiens
HUVEC [39] = assay: Antiangiogenic activity in HUVEC assessed as inhibition of VEGF-induced tubule growth at 100 nM; format: functional; conditions: Homo sapiens
HUVEC [40] = assay: Antiangiogenic activity in HUVEC assessed as inhibition of tubule branching; format: functional, cell-based; conditions: Homo sapiens
HUVEC [41] = assay: Antiangiogenic activity in HUVEC assessed as inhibition of VEGF-induced tubule branching at 100 nM; format: functional; conditions: Homo sapiens

For `Cn1cnc(-c2cc3nccc(Oc4ccc(NC(CC(=O)Nc5ccccc5)C(F)(F)F)cc4F)c3s2)c1` (configuration not stated), the IC50 [1] was 10 nM.
For `Cn1cnc(-c2cc3nccc(Oc4ccc(NC(=O)CC(Nc5ccccc5)C(F)(F)F)cc4F)c3s2)c1` (configuration not stated), the IC50 [1] was 210 nM.
`Cn1cnc(-c2cc3nccc(Oc4ccc(NC(=O)CC(=O)Nc5ccccc5)cc4F)c3s2)c1` was tested, and the IC50 [1] was 20 nM and the IC50 [2] was 30 nM.
`COc1cc2nccc(Oc3ccc(NC(=O)CC(Nc4ccccc4)C(F)(F)F)cc3F)c2cc1OC` (configuration not stated) gave an IC50 [1] of 360 nM and an IC50 [2] of 680 nM.
`COc1ccccc1NC(=O)CC(Nc1ccc(Oc2ccnc3cc(-c4cn(C)cn4)sc23)c(F)c1)C(F)(F)F` (configuration not stated) was tested, and the inhibition [3] was greater than 95%, the inhibition [4] was greater than 95% and the IC50 [5] was 1800 nM. It also gave an IC50 [1] of 20 nM, an IC50 [2] of 840 nM and an inhibition [6] of 50%. The inhibition [7] was less than 50%, the inhibition [8] was less than 50% and the inhibition [9] was less than 50%. The inhibition [10] was less than 50%, the inhibition [11] was less than 50% and the inhibition [12] was less than 50%. The inhibition [13] was less than 50%, the inhibition [14] was less than 50% and the inhibition [15] was less than 50%. It also gave an inhibition [16] of less than 50%, an inhibition [17] of less than 50% and an inhibition [18] of less than 50%. For the same compound, the inhibition [19] was less than 50%, the inhibition [20] was less than 50% and the inhibition [21] was less than 50%. The inhibition [22] was less than 50%, the inhibition [23] was less than 50% and the inhibition [24] was less than 50%. For the same compound, the inhibition [25] was less than 50%, the inhibition [26] was 50% and the inhibition [27] was 50%. It also gave an inhibition [28] of 50% and an inhibition [29] of 50%.
With `COc1cc2ncnc(Oc3ccc(NC(=O)CC(Nc4ccccc4)C(F)(F)F)cc3F)c2cc1OC` (configuration not stated) the IC50 [1] was 860 nM and the IC50 [2] was greater than 5000 nM.
`O=C(CC(Nc1ccc(F)cc1)C(F)(F)F)Nc1ccc(Oc2cc(NC(=O)N3CCCC3)ncn2)c(F)c1` (configuration not stated) gave an IC50 [1] of 1200 nM and an IC50 [2] greater than 5000 nM.
`Cn1cnc(-c2cc3nccc(Oc4ccc(NC(CC(=O)Nc5ccc(F)cc5)C(F)(F)F)cc4)c3s2)c1` (configuration not stated) showed an IC50 [5] of 880 nM, an IC50 [1] of 20 nM and an IC50 [2] of 180 nM.
`Cn1cnc(-c2cc3nccc(Oc4ccc(NC(CC(=O)Nc5ccc(F)cc5)C(F)(F)F)cc4F)c3s2)c1` (configuration not stated) showed an IC50 [5] of 370 nM, an IC50 [1] of 20 nM and an IC50 [2] of 90 nM.
`COc1cc2nccc(Oc3ccc(NC(CC(=O)Nc4ccccc4)C(F)(F)F)cc3F)c2cc1OC` (configuration not stated) gave an IC50 [1] of 30 nM and an IC50 [2] of 910 nM.
In the case of `O=C(CC(Nc1ccc(Oc2cc(NC(=O)N3CCCC3)ncn2)c(F)c1)C(F)(F)F)Nc1ccccc1` (configuration not stated), the inhibition [30] is reported as “inactive”, the inhibition [31] is reported as “inactive” and the inhibition [32] is reported as “inactive”. For the same compound, the inhibition [33] was “inactive”, the inhibition [34] was “inactive” and the inhibition [35] was “Active”. For the same compound, the inhibition [36] was “Active”, the IC50 (HUVEC [37]) was 40 nM and the IC50 (HUVEC [38]) was 10 nM. For the same compound, the inhibition at 0.1 µM (HUVEC [39]) was 97%, the IC50 (HUVEC [40]) was 6 nM and the inhibition at 0.1 µM (HUVEC [41]) was 95%. For the same compound, the IC50 [1] was 40 nM and the IC50 [2] was greater than 5000 nM.
`CN(C(=O)CC(=O)Nc1ccc(Oc2ccnc3cc(-c4cn(C)cn4)sc23)c(F)c1)c1ccccc1` showed an IC50 [2] of 40 nM.
